Test results reported in patent publication US20220154242A1, “METHOD FOR MODIFYING SUBSTRATE SPECIFICITY OF GLUCOSE DEHYDROGENASE AND AGENT FOR MODIFYING SUBSTRATE SPECIFICITY OF GLUCOSE DEHYDROGENASE” (KIKKOMAN CORPORATION, priority 2019, published 2022).

Legend:
Wild type MpGDH [1] = test: Maltose/glucose response current ratio, IPPD/MpGDH-immobilized screen-printed electrode (chronoamperometry); format: biochemical, Mucor prainii
Excerpt: (§1) The ratio (Mal/Glu) of the reactivity of the glucose dehydrogenase to maltose (Mal) relative to the reactivity thereof to glucose (Glu) can be determined by the following procedures. Onto a printed carbon electrode, N-isopropyl-N′-phenyl-p-phenylenediamine (IPPD) is immobilized by adsorption and a glucose dehydrogenase is immobilized by cross-linking using glutaraldehyde, wherein the glucose dehydrogenase is, for example, a glucose dehydrogenase from a microorganism of the genus Mucor or a glucose dehydrogenase from a microorganism of the genus Aspergillus. Chronoamperometry is performed by using a three-electrode system composed of a working electrode, a counter electrode, and a reference electrode and applying a potential of +250 mV (Ag/AgCl). Once the current value has become sufficiently constant, maltose is added to a final concentration of 1 mM in phosphate-buffered saline (PBS) (for example, maltose is added 100 seconds after the start of measurement). Next, once the current value has become sufficiently constant again after the addition of maltose, glucose is added to a final concentration of 1 mM in phosphate-buffered saline (PBS) (for example, glucose is added 100 seconds after the addition of maltose). The substrate specificity of glucose dehydrogenase can be evaluated by measuring the reactivity thereof to maltose when the reactivity thereof to glucose is considered as 100%. In the present specification, the ratio of the reactivity to maltose (Mal) relative to the reactivity to glucose (Glu) may be denoted as Mal/Glu. When the reactivity is evaluated based on the response current(s), the ratio of the reactivity may be expressed as the ratio of the response current(s).
(§2) 10 μL of 12 mg/ml MpGDH purified preparation, 10 μL of 15 mM each glucose analog, and 10 μL of 20 mM potassium phosphate buffer were mixed and allowed to stand for 2 hours or longer. N-isopropyl-N′-phenyl-p-phenylenediamine (IPPD) was immobilized by adsorption onto screen-printed electrodes (manufactured by DropSens, Product number: DRP-C110) and 12 μg of each MpGDH was applied to the electrodes and allowed to dry at room temperature. Lastly, the electrodes were placed in 25% glutaraldehyde vapor and the resulting electrodes were washed with pure water to obtain IPPD.MpGDH-immobilized electrodes. Next, the electrode was connected to an ALS electrochemical analyzer 814D via a dedicated connector (DRP-CAC). Then, the IPPD.GDH-immobilized electrode, an Ag/AgCl reference electrode, and a platinum counter electrode were immersed in PBS and chronoamperometric measurement was carried out. The applied voltage was set to +250 mV (Ag/AgCl). Once the current value had become sufficiently constant (about 100 seconds after the start of measurement), maltose was added to a final concentration of 1 mM in PBS. Next, subsequently to the addition of the maltose solution, once the current value had become sufficiently constant again (about 100 seconds after the addition of maltose), a glucose solution was added to a final concentration of 1 mM. The difference in the response current before and after the addition of maltose was recorded as the response current value of maltose, and the difference in the response current before and after the addition of glucose was recorded as the response current value of glucose. The value calculated by dividing the response current value of maltose by the response current value of glucose was expressed as maltose/glucose (%). […] Furthermore, when the maltose/glucose of MpGDH in the absence of a substrate specificity modifier is considered as 100%, the value in the presence of D-glucal became 69%, and the substrate specificity was modified.

MpGDH = test: Maltose/glucose response current ratio, unimmobilized MpGDH with mPMS (chronoamperometry); format: biochemical, Mucor prainii; details: for maltose/glucose relative to MpGDH considered as 100%: unimmobilized MpGDH, mPMS, 5 mM maltose, +100 mV
Protocol: (§3) 10 μL of 12 mg/ml MpGDH purified preparation, 10 μL of 15 mM each glucose analog, and 10 μL of 20 mM potassium phosphate buffer were mixed and allowed to stand for 2 hours or longer. Onto screen-printed electrodes (manufactured by DropSens, Product number: DRP-C110), 80 μL of PBS, 5 μL of each MpGDH solution, and 10 μL of 2 mg/ml mPMS solution were applied and mixed. Chronoamperometric measurement was carried out at an applied voltage of +100 mV (Ag/Ag+). Once the current value had become sufficiently constant (about 100 seconds after the start of measurement), a maltose solution was added to a final concentration of 5 mM and mixed by pipetting up and down. Measurement was stopped once the current value had become sufficiently constant. The difference in the response current before and after the addition of maltose was regarded as the response current value of maltose. In contrast, when an equivalent amount of pure water was added instead of the maltose solution, increase in the response current was not observed. The used printed electrode was thoroughly washed with ultrapure water and dried, and then chronoamperometric measurement was carried out in the same manner as above. A glucose solution was added instead of the maltose solution and the response current value of glucose was measured. The value calculated by dividing the response current value of maltose by the response current value of glucose was expressed as maltose/glucose (%).

[2] = test system: GLD1 (glucose dehydrogenase (FAD-dependent), BBI Solutions); test: Maltose/glucose response current ratio, IPPD/GLD1-immobilized screen-printed electrode (chronoamperometry); format: biochemical, Aspergillus; details: for Maltose/Glucose (%) / Relative value (%) of Maltose/Glucose: 5 mM additive; for Maltose/Glucose (%): 1 mM maltose, 1 mM glucose; for Relative value (%) of Maltose/Glucose: no modifier = 100%
Excerpt: as §1, §2
In the same manner, glucose dehydrogenase (FAD-dependent) (from BBI Solutions, Product Code: GLD1, hereinafter denoted as GLD1) was used to examine the effect of the substrate specificity modifier.

Wild type MpGDH [3] = test: Maltose/glucose response current ratio, MWCNT/DPPD/MpGDH-immobilized carbon cloth electrode (chronoamperometry); format: biochemical, Mucor prainii; details: for Maltose/Glucose Relative value (%): 50 mM additive, wild type MpGDH on carbon cloth electrode, no modifier = 100%; for Modification of substrate specificity of GDH: carbon cloth electrode, MpGDH
Protocol: The cloth was thoroughly dried and then washed with ultrapure water. Subsequently, 40 mg/ml wild type MpGDH and 20 μl of 100 mM various glucose analogs dissolved in ultrapure water were mixed in equal proportions, and 20 μl of the resulting solution was applied to the […] immobilized electrode. After being allowed to dry at room temperature, the electrode was placed in 25% glutaraldehyde vapor for 20 minutes to immobilize MpGDH by cross-linking. Then, the electrode was subjected to washing with ultrapure water in the same manner as above to obtain an […]-immobilized electrode. Next, this electrode was connected to an ALS electrochemical analyzer […]. Then, the […]-immobilized electrode, an Ag/AgCl reference electrode, and a platinum counter electrode were immersed in PBS, and chronoamperometric measurement was carried out. The applied voltage was set to +250 mV (Ag/AgCl). […] The difference in the response current before and after the addition of maltose was recorded as the response current value of maltose, and the difference in the response current before and after the addition of glucose was recorded as the response current value of glucose. The value calculated by dividing the response current value of maltose by the response current value of glucose was expressed as maltose/glucose (%). […] An […]-immobilized electrode was made in the same manner as Example 4 except that the application step was altered. That is, 20 μl of 40 mg/ml wild type MpGDH was mixed with 10 μl each of 100 mM glycerol and 100 mM L-iditol dissolved in ultrapure water, and 20 μl of the resulting solution was applied to the […] immobilized electrode for the application step. Then, chronoamperometric measurement was carried out according to the method described in Example 4, and the maltose/glucose (%) was calculated.

[4] = test system: GLD1 (glucose dehydrogenase (FAD-dependent), BBI Solutions); test: Maltose/glucose response current ratio, unimmobilized GLD1 with mPMS (chronoamperometry); format: biochemical, Aspergillus; details: for Maltose/Glucose (%) / Relative value (%) of Maltose/Glucose: 5 mM additive; for Maltose/Glucose (%): mPMS; for Relative value (%) of Maltose/Glucose: no modifier = 100%
Protocol: as §3
In the same manner, GLD1 was used to examine the effect of the substrate specificity modifier.

MrdGDH = test: Maltose/glucose response current ratio, unimmobilized MrdGDH with mPMS (chronoamperometry); format: biochemical, Mucor RD056860
Protocol: as §3
In the same manner, MrdGDH was used to examine the effect of the substrate specificity modifier.

## O=C[C@@H](O)[C@@H](O)[C@H](O)[C@@H](O)CO [L-gulose]
Wild type MpGDH [1]; 5 mM additive, immobilized wild type MpGDH, 1 mM maltose, 1 mM glucose, +250 mV
  Maltose/Glucose (%): 0.34%
Wild type MpGDH [1]; 5 mM additive, immobilized wild type MpGDH, no modifier = 100%
  Relative value (%) of Maltose/Glucose: 74%
Wild type MpGDH [1]; immobilized MpGDH
  Modification of substrate specificity: modified the substrate specificity
MpGDH
  maltose/glucose relative to MpGDH considered as 100%: 56%
[2]
  Modification of substrate specificity: modified the substrate specificity
  Maltose/Glucose (%): 0%
  Relative value (%) of Maltose/Glucose: 0%
Wild type MpGDH [3]
  Maltose/Glucose Relative value (%): 62%
  Modification of substrate specificity of GDH: modified the substrate specificity
[4]
  Modification of substrate specificity: modified the substrate specificity
  Maltose/Glucose (%): 0.23%
  Relative value (%) of Maltose/Glucose: 70%
MrdGDH
  Modification of substrate specificity: modified the substrate specificity
MrdGDH; 5 mM additive, mPMS
  Maltose/Glucose (%): 28%
MrdGDH; 5 mM additive, no modifier = 100%
  Relative value (%) of Maltose/Glucose: 90%

## OC[C@H](O)[C@@H](O)[C@H](O)[C@@H](O)CO [L-iditol]
MpGDH; enzyme not immobilized
  Acts as substrate specificity modifier: act as a substrate specificity modifier
MpGDH
  maltose/glucose relative to MpGDH considered as 100%: 68%
[2]
  Modification of substrate specificity: modified the substrate specificity
  Maltose/Glucose (%): 0%
  Relative value (%) of Maltose/Glucose: 0%
Wild type MpGDH [3]
  Maltose/Glucose Relative value (%): 58%
  Modification of substrate specificity of GDH: modified the substrate specificity
[4]
  Modification of substrate specificity: modified the substrate specificity
  Maltose/Glucose (%): 0.25%
  Relative value (%) of Maltose/Glucose: 76%
